From publication PMC10726354, “Design, Synthesis, and Biological Evaluation of Small-Molecule-Based Radioligands with Improved Pharmacokinetic Properties for Imaging of Programmed Death Ligand 1” (Journal of Medicinal Chemistry, 2023)

Molecular target: T1, PD-L1 (Homo sapiens, UniProt Q9NZQ7)
T1 construct: expressed in transfected cells; host or cells: PC3 cells (human prostate carcinoma), stably transduced
Assay: Saturation binding assay on live PC3 PD-L1 overexpressing cells
Protocol: For assessing the binding affinity of compounds [^64Cu]Cu-1–6, PC3 cells transduced with PD-L1 were used. Dissociation constants in equilibrium (KD) and maximum number of binding sites (Bmax) were determined in a saturation binding assay. The assays were performed with the addition of 2.5% bovine serum albumin (BSA) in the medium to prevent unspecific binding to plastic wells, as reported previously for our first radioligands.[1]
For saturation binding, cells were trypsinized (0.05% Trypsin–EDTA, Gibco, USA), counted, and diluted to ∼160,000 cells/mL. 0.25 mL of the cell solution was then added to each well of a 48-well plate (Falcon Multiwell #353078) and grown for at least 2 days.
To determine the affinity (KD) and the number of binding sites (Bmax) of the herein described PD-L1 small-molecule ligands, saturation binding was performed in at least three independent experiments, as described before.[45] Cells were brought to room temperature followed by cooling on ice (each 15 min). The medium was removed and replaced with 200 μL assay buffer [PBS + 2.5% (w/v) BSA] for total binding (TB) conditions or assay buffer containing 300 μM BMS-1166 (in DMSO, resulting in 0.03% v/v) for the assessment NSB. After 15 min preincubation, 200 μL of each of the eight serial 1:1 dilutions (500 to 3.91 nM) of the respective radioligand was added (in triplicate). Cells were then incubated for 90 min at 4 °C, washed (3 × 1 min), and lysed in 500 μL of 0.1 M NaOH + 1% SDS. Radioactivity of the lysate was measured and decay corrected to a reference time (end of radiolabeling). An additional plate was subjected to the same conditions (preincubation, incubation, and washing) using PBS without BSA for each experiment, and the protein content of these lysates was determined by BCA assay. From CPM measurements, final values (pmol/mg protein) were calculated using the mean protein content and molar activity.
Processed data were then subjected to nonlinear iterative curve fitting (GraphPad Prism 9) to yield Bmax (in pmol/mg protein) and KD (in nM).

T1 sequence (Q9NZQ7 19-290): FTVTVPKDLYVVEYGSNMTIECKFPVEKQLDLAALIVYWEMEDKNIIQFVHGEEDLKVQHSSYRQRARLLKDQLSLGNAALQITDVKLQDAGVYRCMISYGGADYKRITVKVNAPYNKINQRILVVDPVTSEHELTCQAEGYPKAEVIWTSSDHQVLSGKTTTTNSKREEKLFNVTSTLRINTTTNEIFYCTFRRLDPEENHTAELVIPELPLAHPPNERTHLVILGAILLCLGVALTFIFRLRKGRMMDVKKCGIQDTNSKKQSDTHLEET

Structure (SMILES): Cc1c(COc2cc(OCc3cccc(C#N)c3)c(CN3C[C@H](O)C[C@@H]3C(=O)O)cc2Cl)cccc1-c1ccc2c(c1)OCCO2 [BMS-1166, reference compound]
- binding blocked in the saturation assay: ~80%
